From ChEMBL document CHEMBL5154808, “Novel β-Hairpin Antimicrobial Peptides Containing the β-Turn Sequence of -RRRF- Having High Cell Selectivity and Low Incidence of Drug Resistance” (J Med Chem, 2022) come the findings set out here.

Active and inactive are the calls of the source. The calls are words filed in the database; no cut-off is given here.

In data set [1] the test system is Staphylococcus aureus. Description: Antibacterial activity against Staphylococcus aureus ATCC 25923 infected BALB/c mouse assessed as reduction in hepatic inflammatory cell infiltration at 5 to 10 mg/kg, ip measured after 24 hrs by hematoxylin and eosin staining based assay. The format is functional, organism-based. As to conditions: dose 5-10 mg/kg.
For data set [2], the system named is Staphylococcus epidermidis. As to the kind of experiment: Antimicrobial activity against Staphylococcus epidermidis ATCC 12228 assessed as reduction of bacterial growth incubated for 18 hrs by CLSI protocol based broth microdilution method. In kind it is functional.
The test system of data set [3] is Escherichia coli. Description: Antimicrobial activity against Escherichia coli ATCC 25922 assessed as reduction of bacterial growth incubated for 18 hrs by CLSI protocol based broth microdilution method. The format is functional.
Data set [4] can be described thus: Cytotoxicity against human HK-2 cells assessed as reduction in cell viability incubated for 1 hr by resazurin based microplate reader method. The format is toxicity.
Data set [5] concerns Escherichia coli. As to the kind of experiment: Antimicrobial activity against Escherichia coli ATCC 25922 assessed as fold change in MIC incubated for 18 hrs in presence of 4 uM FeCl3 by CLSI protocol based broth microdilution method relative to control. In kind it is functional.
Data set [6] concerns Escherichia coli. Description: Antimicrobial activity against Escherichia coli ATCC 25922 assessed as reduction in bacterial growth incubated for 18 hrs in presence of 4.5 mM KCl by CLSI protocol based broth microdilution method (reference value: 8 uM). The format is functional.
Data set [7] concerns Escherichia coli. Description: Antimicrobial activity against Escherichia coli ATCC 25922 assessed as reduction in bacterial growth incubated for 18 hrs in presence of 1 mM MgCl2 by CLSI protocol based broth microdilution method (reference value: 8 uM). In kind it is functional.
Data set [8] concerns Escherichia coli. As to the kind of experiment: Antimicrobial activity against Escherichia coli ATCC 25922 assessed as reduction in bacterial growth incubated for 18 hrs in presence of 4 uM FeCl3 by CLSI protocol based broth microdilution method (reference value: 8 uM). In kind it is functional.
Data set [9] concerns Escherichia coli. As to the kind of experiment: Antimicrobial activity against Escherichia coli ATCC 25922 assessed as reduction in bacterial growth incubated for 18 hrs in presence of 10% serum by CLSI protocol based broth microdilution method (reference value: 8 uM). The format is functional.
The subject of data set [10] is Staphylococcus aureus. As to the kind of experiment: Antimicrobial activity against Staphylococcus aureus ATCC 25923 assessed as fold change in MIC incubated for 18 hrs in presence of 10% serum by CLSI protocol based broth microdilution method relative to control. The format is functional.
Data set [11] concerns Staphylococcus aureus. Description: Antimicrobial activity against Staphylococcus aureus ATCC 25923 assessed as assessed as fold change in MIC incubated for 18 hrs in presence of 4 uM FeCl3 by CLSI protocol based broth microdilution method relative to control. The format is functional.
Data set [12] deals with Staphylococcus aureus. Description: Antimicrobial activity against Staphylococcus aureus ATCC 25923 assessed as fold change in MIC incubated for 18 hrs in presence of 4.5 mM KCl by CLSI protocol based broth microdilution method relative to control. In kind it is functional.
Data set [13] deals with Staphylococcus aureus. As to the kind of experiment: Antimicrobial activity against Staphylococcus aureus ATCC 25923 assessed as reduction in bacterial growth incubated for 18 hrs in presence of 4.5 mM KCl by CLSI protocol based broth microdilution method (reference value: 8 uM). The format is functional.
Data set [14] relates to Staphylococcus aureus. As to the kind of experiment: Antimicrobial activity against Staphylococcus aureus ATCC 25923 assessed as reduction in bacterial growth incubated for 18 hrs in presence of 150 mM NaCl by CLSI protocol based broth microdilution method (reference value: 8 uM). In kind it is functional.
Data set [15] can be described thus: Stability in mouse serum assessed as half life at 10 mM measured upto 360 mins by RP-HPLC analysis. In kind it is ADME, cell-free.
Data set [16] concerns Escherichia coli. Description: Synergistic antibacterial activity against Escherichia coli ATCC 25922 assessed as fractional inhibitory concentration index incubated for 18 hrs in presence of kanamycin by checker board assay. The format is functional.
In data set [17] the test system is Escherichia coli. Description: Synergistic antibacterial activity against kanamycin-resisitant Escherichia coli ATCC 25922 assessed as fractional inhibitory concentration index incubated for 18 hrs in presence of kanamycin by checker board assay. In kind it is functional.
In data set [18] the test system is Escherichia coli. Description: Synergistic antibacterial activity against meropenem-resistant Escherichia coli ATCC 25922 assessed as fractional inhibitory concentration index incubated for 18 hrs in presence of meropenem by checker board assay. The format is functional.
Data set [19] concerns Staphylococcus aureus. Description: Synergistic antibacterial activity against kanamycin-resisitant Staphylococcus aureus ATCC 25923 assessed as fractional inhibitory concentration index incubated for 18 hrs in presence of kanamycin by checker board assay. In kind it is functional.
In data set [20] the test system is Escherichia coli. As to the kind of experiment: Antimicrobial activity against Escherichia coli ATCC 25922 assessed as morphological changes measured after 4 hrs by SEM analysis. The format is functional, organism-based.
A short description of data set [21]: Acute toxicity in Kunming mouse assessed as hepatocyte hyperemia in liver at 62 mg/kg, ip by H and E staining based analysis. The format is organism-based.
The nature of data set [22]: Acute toxicity in Kunming mouse assessed as swelling in liver at 62 mg/kg, ip by H and E staining based analysis. The format is organism-based. As to conditions: in vivo.
The subject of data set [23] is Escherichia coli. As to the kind of experiment: Antimicrobial activity against Escherichia coli ATCC 25922 assessed as reduction in bacterial growth incubated for 18 hrs in presence of 150 mM NaCl by CLSI protocol based broth microdilution method (reference value: 4 uM). In kind it is functional.
In data set [24] the test system is Escherichia coli. As to the kind of experiment: Antimicrobial activity against Escherichia coli ATCC 25922 assessed as reduction in bacterial growth incubated for 18 hrs in presence of 1 mM MgCl2 by CLSI protocol based broth microdilution method (reference value: 4 uM). The format is functional.
Data set [25] deals with Escherichia coli. Description: Antimicrobial activity against Escherichia coli ATCC 25922 assessed as reduction in bacterial growth incubated for 18 hrs in presence of 4 uM FeCl3 by CLSI protocol based broth microdilution method (reference value: 4 uM). In kind it is functional.
Data set [26] concerns Staphylococcus aureus. As to the kind of experiment: Antimicrobial activity against Staphylococcus aureus ATCC 25923 assessed as reduction in bacterial growth incubated for 18 hrs in presence of 10% serum by CLSI protocol based broth microdilution method (reference value: 4 uM). In kind it is functional.
For data set [27], the system named is Staphylococcus aureus. Description: Antimicrobial activity against Staphylococcus aureus ATCC 25923 assessed as reduction in bacterial growth incubated for 18 hrs in presence of 4 uM FeCl3 by CLSI protocol based broth microdilution method (reference value: 4 uM). In kind it is functional.
For data set [28], the system named is Staphylococcus aureus. Description: Antimicrobial activity against Staphylococcus aureus ATCC 25923 assessed as reduction in bacterial growth incubated for 18 hrs in presence of 1 mM MgCl2 by CLSI protocol based broth microdilution method (reference value: 4 uM). The format is functional.
Data set [29] has as its system Staphylococcus aureus. Description: Antimicrobial activity against Staphylococcus aureus ATCC 25923 assessed as reduction in bacterial growth incubated for 18 hrs in presence of 4.5 mM KCl by CLSI protocol based broth microdilution method (reference value: 4 uM). In kind it is functional.
Data set [30] relates to Staphylococcus aureus. Description: Antimicrobial activity against Staphylococcus aureus ATCC 25923 assessed as reduction in bacterial growth incubated for 18 hrs in presence of 150 mM NaCl by CLSI protocol based broth microdilution method (reference value: 4 uM). In kind it is functional.
Data set [31] in a line: Acute toxicity in Kunming mouse assessed as congestion in lungs at 77 mg/kg, ip by H and E staining based analysis. The format is organism-based. As to conditions: in vivo.
For data set [32], the system named is Staphylococcus aureus. As to the kind of experiment: Synergistic antibacterial activity against meropenem-resistant Staphylococcus aureus ATCC 25923 assessed as fractional inhibitory concentration index incubated for 18 hrs in presence of meropenem by checker board assay. The format is functional.
Data set [33] has as its system Staphylococcus aureus. As to the kind of experiment: Synergistic antibacterial activity against Staphylococcus aureus ATCC 25923 assessed as fractional inhibitory concentration index incubated for 18 hrs in presence of polymyxin B by checker board assay. The format is functional.
The subject of data set [34] is Staphylococcus aureus. As to the kind of experiment: Synergistic antibacterial activity against polymyxin B-resistant Staphylococcus aureus ATCC 25923 assessed as fractional inhibitory concentration index incubated for 18 hrs in presence of polymyxin B by checker board assay. In kind it is functional.

Take H-KWKWKRRRFKWKWK-NH2: the outcome with Staphylococcus aureus [1] and with Escherichia coli [20] was Active. The MIC was 4 µM in [2]; 8 µM in the data set on Escherichia coli [3]; 8 µM with Escherichia coli [6]; 8 µM in the data set on Escherichia coli [7]; 8 µM with Escherichia coli [8]; 8 µM in the data set on Escherichia coli [9]. Also, the MIC in the data set with Staphylococcus aureus [13] was 8 µM; in the data set on Staphylococcus aureus [14], 16 µM. The CC50 at 1 h in data set [4] was above 128 µM. For the same substance, the “fold change (FC)” value with Escherichia coli [5] came to 1; in the data set with Staphylococcus aureus [10], 2; with Staphylococcus aureus [11] it was 1; with Staphylococcus aureus [12], 1. For the same substance, the half-life at 10000 µM in [15] is 161 min. Besides, the “fractional inhibitory concentration index (FICI)” value stood at 0.3125 with Escherichia coli [16], 0.3125 with Escherichia coli [17], 1.25 in the data set with Escherichia coli [18] and 0.5 with Staphylococcus aureus [19]. The Activity entry in [21] and in [22] was “Toxic” throughout.

Take H-RIRIRRRRFRIRIR-NH2: the outcome in the data set with Staphylococcus aureus [1] and with Escherichia coli [20] was Active. Also, the MIC in data set [2] was found to be 4 µM; in the data set on Escherichia coli [3] it was 4 µM; in the data set with Escherichia coli [23], 16 µM; in the data set with Escherichia coli [24], 4 µM; with Escherichia coli [25] it was 8 µM; with Staphylococcus aureus [26] it was 8 µM. Further, the MIC in the data set with Staphylococcus aureus [27] came out at 4 µM; in the data set with Staphylococcus aureus [28], 8 µM; in the data set with Staphylococcus aureus [29], 4 µM; in the data set with Staphylococcus aureus [30], 8 µM. The CC50 at 1 h in [4] was determined as 65.2 µM. For the same substance, the “fold change (FC)” value with Escherichia coli [5] is 2; in the data set with Staphylococcus aureus [10] it was 2; in the data set with Staphylococcus aureus [11], 1; in the data set with Staphylococcus aureus [12], 1. For the same substance, the Activity entry in data set [31] is “Toxic”. Besides, the half-life at 10000 µM in [15] stood at 462 min. The “fractional inhibitory concentration index (FICI)” value was 0.75 in the data set on Escherichia coli [18]; 0.5625 with Staphylococcus aureus [19]; 0.375 in the data set with Staphylococcus aureus [32]; 0.375 in the data set on Staphylococcus aureus [33]; 0.3125 in the data set on Staphylococcus aureus [34].
